Where two headings read alike, the source gives them in different places.
Key:
Test in all cases: biochemical
Set-up in all cases: Reaction Biology 371-kinase panel at Km ATP, per cent enzyme activity relative to DMSO, single dose in duplicate
BTK = BTK (Homo sapiens, UniProt Q06187); details: duplicate measurements, Km ATP
Method: (§1) To assess kinase selectivity, we screened TP-5801 (300 nM) against a panel of 371 kinases in vitro. […] In addition to TNK1, only 7 other kinases were inhibited by more than 90% (Supplementary Fig. 8 and Supplementary Data 2). […] The resulting % Enzyme activity (relative to DMSO controls) were plotted in GraphPad and IC50 values were determined by sigmoidal dose-response (variable slope) curve fits, with a bottom constraint of 0.

PKG1a = molecular target: T1, PKG1a (Homo sapiens, UniProt Q13976); details: duplicate measurements, Km ATP
T1 construct: gene PRKG1; isoform alpha
Method: as §1

EGFR = EGFR (Homo sapiens, UniProt P00533); details: duplicate measurements, Km ATP
Method: as §1

DYRK4 = molecular target: T2, DYRK4 (Homo sapiens, UniProt Q9NR20); details: duplicate measurements, Km ATP
T2 sequence (Q9NR20 1-520): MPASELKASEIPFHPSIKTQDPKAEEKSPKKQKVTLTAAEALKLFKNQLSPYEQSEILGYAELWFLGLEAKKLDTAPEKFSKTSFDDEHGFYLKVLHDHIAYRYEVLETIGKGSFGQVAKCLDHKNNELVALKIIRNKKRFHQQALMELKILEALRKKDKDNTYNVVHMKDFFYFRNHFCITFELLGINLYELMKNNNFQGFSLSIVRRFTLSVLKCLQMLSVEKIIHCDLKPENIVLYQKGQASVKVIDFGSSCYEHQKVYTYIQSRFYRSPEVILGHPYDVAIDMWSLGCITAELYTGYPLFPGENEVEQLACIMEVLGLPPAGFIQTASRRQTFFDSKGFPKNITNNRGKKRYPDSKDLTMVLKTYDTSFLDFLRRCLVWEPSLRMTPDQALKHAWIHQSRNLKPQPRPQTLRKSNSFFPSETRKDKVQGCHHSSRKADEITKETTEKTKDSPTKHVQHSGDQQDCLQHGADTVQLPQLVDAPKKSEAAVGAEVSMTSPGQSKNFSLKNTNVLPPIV
Method: as §1

LIMK1 = LIMK1 (Homo sapiens, UniProt P53667); details: duplicate measurements, Km ATP; read-out: % Enzyme Activity (relative to DMSO controls) / TP-0005801 (0.3µM) / Data 1
Method: as §1

Haspin = Haspin (Homo sapiens, UniProt Q8TF76); details: duplicate measurements, Km ATP
Method: as §1

ARAF = molecular target: T3, ARAF (Homo sapiens, UniProt P10398); details: duplicate measurements, Km ATP
T3 sequence (P10398 1-606): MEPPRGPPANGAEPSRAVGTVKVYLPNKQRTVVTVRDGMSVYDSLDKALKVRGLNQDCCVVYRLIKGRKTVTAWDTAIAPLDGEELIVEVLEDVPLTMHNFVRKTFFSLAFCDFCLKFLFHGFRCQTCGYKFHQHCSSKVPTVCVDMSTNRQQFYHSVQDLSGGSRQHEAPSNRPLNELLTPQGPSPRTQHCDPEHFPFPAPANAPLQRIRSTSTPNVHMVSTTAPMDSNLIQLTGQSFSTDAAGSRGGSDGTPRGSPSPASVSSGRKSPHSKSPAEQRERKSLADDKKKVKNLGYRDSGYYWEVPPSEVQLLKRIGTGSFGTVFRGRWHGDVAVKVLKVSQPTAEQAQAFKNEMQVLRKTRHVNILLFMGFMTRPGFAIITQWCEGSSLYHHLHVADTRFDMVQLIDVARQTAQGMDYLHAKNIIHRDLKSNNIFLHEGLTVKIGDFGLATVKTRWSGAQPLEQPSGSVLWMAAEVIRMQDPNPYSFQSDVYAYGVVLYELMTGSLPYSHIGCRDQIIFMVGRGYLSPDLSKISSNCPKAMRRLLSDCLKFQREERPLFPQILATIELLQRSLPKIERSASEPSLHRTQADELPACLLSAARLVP
Method: as §1

MLK2/MAP3K10 = MLK2/MAP3K10 (Homo sapiens, UniProt Q02779); details: duplicate measurements, Km ATP
Method: as §1

SIK3 = SIK3 (Homo sapiens, UniProt Q9Y2K2); details: duplicate measurements, Km ATP
Method: as §1

RSK4 = molecular target: T4, RSK4 (Homo sapiens, UniProt Q9UK32); details: duplicate measurements, Km ATP
T4 construct: gene RPS6KA6
Method: as §1

CDK5/p35 = molecular target: T5, CDK5/p35 (Homo sapiens, UniProt Q00535); details: duplicate measurements, Km ATP
T5 construct: p35
Method: as §1

CDK9/cyclin T2 = CDK9/cyclin T2 (Homo sapiens, UniProt P50750); details: duplicate measurements, Km ATP
Method: as §1

PHKg2 = PHKg2 (Homo sapiens, UniProt P15735); details: duplicate measurements, Km ATP
Method: as §1

[1] = read-out: % Enzyme Activity (relative to DMSO controls) / TP-0005801 (0.3µM) / Data 1
[2] = read-out: % Enzyme Activity (relative to DMSO controls) / TP-0005801 (0.3µM) / Data 2

T4 sequence (Q9UK32 whole entry): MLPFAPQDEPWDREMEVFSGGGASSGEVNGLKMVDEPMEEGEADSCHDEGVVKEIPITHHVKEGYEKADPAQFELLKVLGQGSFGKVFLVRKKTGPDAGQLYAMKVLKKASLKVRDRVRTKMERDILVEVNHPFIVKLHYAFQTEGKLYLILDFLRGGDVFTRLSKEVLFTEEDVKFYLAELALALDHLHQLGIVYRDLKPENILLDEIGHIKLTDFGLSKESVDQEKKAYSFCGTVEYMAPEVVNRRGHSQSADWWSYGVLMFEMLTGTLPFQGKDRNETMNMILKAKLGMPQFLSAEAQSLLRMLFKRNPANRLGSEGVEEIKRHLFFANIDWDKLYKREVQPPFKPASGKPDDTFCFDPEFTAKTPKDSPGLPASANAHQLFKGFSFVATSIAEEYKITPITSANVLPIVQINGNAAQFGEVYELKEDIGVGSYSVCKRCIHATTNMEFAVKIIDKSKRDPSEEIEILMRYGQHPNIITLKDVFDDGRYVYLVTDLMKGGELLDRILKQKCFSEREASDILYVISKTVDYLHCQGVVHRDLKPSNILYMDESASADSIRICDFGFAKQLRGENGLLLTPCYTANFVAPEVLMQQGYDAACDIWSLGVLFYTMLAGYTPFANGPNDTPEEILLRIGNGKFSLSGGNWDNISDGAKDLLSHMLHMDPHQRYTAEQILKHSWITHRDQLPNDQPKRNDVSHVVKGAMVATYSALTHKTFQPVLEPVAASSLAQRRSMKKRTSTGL
CDK9/cyclin T2, sequence (P50750 whole entry): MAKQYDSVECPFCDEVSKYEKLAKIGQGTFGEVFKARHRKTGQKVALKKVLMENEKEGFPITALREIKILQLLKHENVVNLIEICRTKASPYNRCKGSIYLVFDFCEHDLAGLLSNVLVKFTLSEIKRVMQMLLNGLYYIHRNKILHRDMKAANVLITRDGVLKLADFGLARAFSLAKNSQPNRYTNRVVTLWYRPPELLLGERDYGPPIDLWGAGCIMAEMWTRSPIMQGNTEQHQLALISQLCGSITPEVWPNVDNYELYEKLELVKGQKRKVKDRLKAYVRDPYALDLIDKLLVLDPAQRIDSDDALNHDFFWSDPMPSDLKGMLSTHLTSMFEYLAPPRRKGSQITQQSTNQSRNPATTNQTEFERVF
CDK9/cyclin T2, sequence (O60583 whole entry partner): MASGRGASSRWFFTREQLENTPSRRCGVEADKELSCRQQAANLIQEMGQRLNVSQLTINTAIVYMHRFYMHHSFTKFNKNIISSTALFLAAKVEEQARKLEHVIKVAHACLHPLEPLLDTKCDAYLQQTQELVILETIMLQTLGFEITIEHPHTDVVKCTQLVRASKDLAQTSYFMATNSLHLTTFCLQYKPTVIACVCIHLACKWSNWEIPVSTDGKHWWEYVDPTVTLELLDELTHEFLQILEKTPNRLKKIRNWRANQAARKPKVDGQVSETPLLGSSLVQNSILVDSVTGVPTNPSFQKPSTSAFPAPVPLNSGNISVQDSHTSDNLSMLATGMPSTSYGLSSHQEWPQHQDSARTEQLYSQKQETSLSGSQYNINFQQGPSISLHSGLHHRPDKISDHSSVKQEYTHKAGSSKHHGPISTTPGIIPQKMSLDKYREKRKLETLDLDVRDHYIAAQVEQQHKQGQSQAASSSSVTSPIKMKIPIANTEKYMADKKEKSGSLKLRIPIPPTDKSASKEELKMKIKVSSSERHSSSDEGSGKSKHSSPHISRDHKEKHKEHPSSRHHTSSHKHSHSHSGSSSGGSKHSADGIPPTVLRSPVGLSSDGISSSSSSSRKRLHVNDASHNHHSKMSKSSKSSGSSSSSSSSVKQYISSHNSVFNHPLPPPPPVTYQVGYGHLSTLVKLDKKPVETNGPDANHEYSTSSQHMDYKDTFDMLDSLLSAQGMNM
BTK, sequence (Q06187 whole entry): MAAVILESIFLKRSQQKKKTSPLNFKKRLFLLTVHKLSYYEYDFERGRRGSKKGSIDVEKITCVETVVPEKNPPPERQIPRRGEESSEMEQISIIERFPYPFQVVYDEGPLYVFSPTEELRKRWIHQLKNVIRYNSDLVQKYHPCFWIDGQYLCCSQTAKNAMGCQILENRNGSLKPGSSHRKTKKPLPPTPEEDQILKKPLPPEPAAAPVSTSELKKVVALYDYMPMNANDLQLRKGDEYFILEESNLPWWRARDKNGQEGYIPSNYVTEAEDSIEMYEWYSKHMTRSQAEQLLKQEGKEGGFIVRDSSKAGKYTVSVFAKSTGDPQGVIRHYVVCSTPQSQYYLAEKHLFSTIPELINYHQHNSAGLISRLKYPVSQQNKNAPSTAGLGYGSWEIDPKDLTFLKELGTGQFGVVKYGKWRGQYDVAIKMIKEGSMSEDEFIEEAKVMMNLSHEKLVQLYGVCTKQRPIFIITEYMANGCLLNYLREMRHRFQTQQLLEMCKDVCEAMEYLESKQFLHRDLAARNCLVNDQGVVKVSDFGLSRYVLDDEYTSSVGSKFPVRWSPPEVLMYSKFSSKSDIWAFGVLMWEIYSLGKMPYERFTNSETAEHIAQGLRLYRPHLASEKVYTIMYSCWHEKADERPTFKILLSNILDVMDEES
T1 sequence (Q13976 whole entry, canonical isoform): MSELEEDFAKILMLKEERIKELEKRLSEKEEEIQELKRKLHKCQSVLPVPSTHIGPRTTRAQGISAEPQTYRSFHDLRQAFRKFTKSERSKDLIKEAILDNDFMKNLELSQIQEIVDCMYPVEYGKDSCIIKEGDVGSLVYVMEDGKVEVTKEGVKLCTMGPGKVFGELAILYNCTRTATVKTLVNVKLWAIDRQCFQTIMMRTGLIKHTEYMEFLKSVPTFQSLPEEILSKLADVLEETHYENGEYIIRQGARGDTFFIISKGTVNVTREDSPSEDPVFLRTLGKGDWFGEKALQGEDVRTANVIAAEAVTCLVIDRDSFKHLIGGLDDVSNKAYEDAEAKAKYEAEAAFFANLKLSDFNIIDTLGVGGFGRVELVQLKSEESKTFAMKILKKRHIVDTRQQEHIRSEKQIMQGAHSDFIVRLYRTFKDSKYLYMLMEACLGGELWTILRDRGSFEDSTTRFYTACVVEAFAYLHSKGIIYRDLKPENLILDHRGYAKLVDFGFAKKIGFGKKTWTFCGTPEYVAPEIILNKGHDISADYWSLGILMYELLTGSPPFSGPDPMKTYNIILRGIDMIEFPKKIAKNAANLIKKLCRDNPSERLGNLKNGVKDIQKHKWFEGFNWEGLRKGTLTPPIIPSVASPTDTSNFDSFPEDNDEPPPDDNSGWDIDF
EGFR, sequence (P00533 whole entry): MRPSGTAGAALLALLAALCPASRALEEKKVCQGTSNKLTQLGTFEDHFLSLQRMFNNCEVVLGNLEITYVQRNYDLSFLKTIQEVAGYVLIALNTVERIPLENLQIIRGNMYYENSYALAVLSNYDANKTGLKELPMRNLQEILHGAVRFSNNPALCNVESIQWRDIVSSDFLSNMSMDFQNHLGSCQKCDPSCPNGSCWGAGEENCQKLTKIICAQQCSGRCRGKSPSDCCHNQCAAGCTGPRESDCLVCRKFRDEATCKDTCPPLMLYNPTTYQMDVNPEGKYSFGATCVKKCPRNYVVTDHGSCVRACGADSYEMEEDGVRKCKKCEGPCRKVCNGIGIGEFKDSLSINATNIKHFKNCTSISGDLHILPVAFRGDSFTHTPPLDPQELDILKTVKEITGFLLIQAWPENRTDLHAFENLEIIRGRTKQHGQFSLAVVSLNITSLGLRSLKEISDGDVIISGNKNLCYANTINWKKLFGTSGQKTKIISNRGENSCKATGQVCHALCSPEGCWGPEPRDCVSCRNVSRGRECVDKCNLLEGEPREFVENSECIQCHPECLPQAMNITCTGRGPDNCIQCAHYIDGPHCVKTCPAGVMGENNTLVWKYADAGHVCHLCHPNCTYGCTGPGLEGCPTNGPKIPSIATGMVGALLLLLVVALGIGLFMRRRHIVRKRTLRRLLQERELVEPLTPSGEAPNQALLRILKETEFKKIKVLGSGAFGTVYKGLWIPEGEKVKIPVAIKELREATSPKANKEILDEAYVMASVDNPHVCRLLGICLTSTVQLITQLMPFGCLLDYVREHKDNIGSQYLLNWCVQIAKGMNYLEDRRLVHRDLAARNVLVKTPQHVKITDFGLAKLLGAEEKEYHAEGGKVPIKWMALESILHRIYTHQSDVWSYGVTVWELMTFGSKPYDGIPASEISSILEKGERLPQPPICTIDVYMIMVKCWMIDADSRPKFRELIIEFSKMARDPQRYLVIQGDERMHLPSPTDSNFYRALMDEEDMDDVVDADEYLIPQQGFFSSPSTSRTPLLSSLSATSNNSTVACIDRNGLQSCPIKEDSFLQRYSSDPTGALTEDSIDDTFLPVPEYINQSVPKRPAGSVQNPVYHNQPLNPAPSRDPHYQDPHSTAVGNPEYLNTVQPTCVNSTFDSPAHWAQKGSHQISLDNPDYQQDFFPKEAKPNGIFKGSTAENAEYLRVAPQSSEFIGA
PHKg2, sequence (P15735 whole entry): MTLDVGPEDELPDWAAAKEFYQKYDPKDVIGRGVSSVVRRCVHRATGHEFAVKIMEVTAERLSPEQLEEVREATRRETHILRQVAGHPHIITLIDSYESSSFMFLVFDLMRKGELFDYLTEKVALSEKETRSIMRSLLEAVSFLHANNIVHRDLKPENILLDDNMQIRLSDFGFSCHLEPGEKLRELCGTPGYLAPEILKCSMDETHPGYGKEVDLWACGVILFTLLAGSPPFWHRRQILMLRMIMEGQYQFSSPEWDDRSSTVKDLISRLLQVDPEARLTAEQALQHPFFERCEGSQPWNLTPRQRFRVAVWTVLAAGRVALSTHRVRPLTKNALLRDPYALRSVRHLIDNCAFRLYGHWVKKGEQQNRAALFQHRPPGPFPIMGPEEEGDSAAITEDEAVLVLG

`COc1cc(N2CCN(C)CC2)c(C)cc1Nc1ncc(Br)c(Nc2cccnc2N(C)C)n1` [TP-5801] showed a remaining activity at 0.3 µM (BTK; [1]) of 93.6%, a remaining activity at 0.3 µM (BTK; [2]) of 92.1% and a remaining activity at 0.3 µM (PKG1a; [1]) of 87.6%. It also gave a remaining activity at 0.3 µM (PKG1a; [2]) of 85.6%, a remaining activity at 0.3 µM (EGFR; [1]) of 97.2% and a remaining activity at 0.3 µM (EGFR; [2]) of 96%. For the same molecule, the remaining activity at 0.3 µM (DYRK4; [1]) was 104%, the remaining activity at 0.3 µM (DYRK4; [2]) was 99.2% and the remaining activity at 0.3 µM (LIMK1) was 104%. It also gave a remaining activity at 0.3 µM (Haspin; [1]) of 88.2%, a remaining activity at 0.3 µM (Haspin; [2]) of 86.9% and a remaining activity at 0.3 µM (ARAF; [1]) of 88.1%. It also gave a remaining activity at 0.3 µM (ARAF; [2]) of 82.3%, a remaining activity at 0.3 µM (MLK2/MAP3K10; [1]) of 87% and a remaining activity at 0.3 µM (MLK2/MAP3K10; [2]) of 85.9%. For the same molecule, the remaining activity at 0.3 µM (SIK3; [1]) was 96.1%, the remaining activity at 0.3 µM (SIK3; [2]) was 93.9% and the remaining activity at 0.3 µM (RSK4; [1]) was 79.4%. For the same molecule, the remaining activity at 0.3 µM (RSK4; [2]) was 77.9%, the remaining activity at 0.3 µM (CDK5/p35; [1]) was 99.5% and the remaining activity at 0.3 µM (CDK5/p35; [2]) was 99.1%. It also gave a remaining activity at 0.3 µM (CDK9/cyclin T2; [1]) of 89.2%, a remaining activity at 0.3 µM (CDK9/cyclin T2; [2]) of 88.6% and a remaining activity at 0.3 µM (PHKg2; [1]) of 72.4%. It also gave a remaining activity at 0.3 µM (PHKg2; [2]) of 71.3%.
